17 compounds from ChEMBL document CHEMBL2396534, “Long-chain triazolyl acids as inhibitors of osteoclastogenesis” (2013) can be followed below.

For assay [1], the system named is Bone marrow cell. In words: Inhibition of osteoclastogenesis in CD1 mouse bone marrow cells at 37 uM added on day 2 and day 4 measured on day 7 by TRAP assay relative to control. Type of assay: functional.
Assay [2] concerns Bone marrow cell. Kind of assay: Inhibition of osteoclastogenesis in CD1 mouse bone marrow cells at 0.1 to 10 ug/ml added on day 2 and day 4 measured on day 7 by TRAP assay. Type of assay: functional, cell-based.
Assay [3] deals with Bone marrow cell. Kind of assay: Inhibition of osteoclastogenesis in CD1 mouse bone marrow cells at 72 uM added on day 2 and day 4 measured on day 7 by TRAP assay relative to control. Type of assay: functional.
In assay [4] the test system is Bone marrow cell. Kind of assay: Inhibition of osteoclastogenesis in CD1 mouse bone marrow cells at 5 ug/ml added on day 2 and day 4 measured on day 7 by TRAP assay relative to GW9508. Type of assay: functional, cell-based.
For assay [5], the system named is Bone marrow cell. Kind of assay: Inhibition of osteoclastogenesis in CD1 mouse bone marrow cells at 0.01 ug/ml added on day 2 and day 4 measured on day 7 by TRAP assay relative to control. In kind it is functional.

Calls of active or inactive are those of the source. The rule behind the calls is not given here.

In the assay with Bone marrow cell [1], `CCCCCn1cc(CCCCCCCC(=O)O)nn1` returned an inhibition at 37 µM of 33.8%.
Consider `CCCCCCCCCn1cc(CCCC(=O)O)nn1`, for which, in the assay on Bone marrow cell [2], the inhibition entry is “Active”. This compound showed an inhibition at 37 µM with Bone marrow cell [1] of 22.2%.
For the compound `O=C(O)CCc1ccc(NCc2cccc(Oc3ccccc3)c2)cc1` [GW9508], the inhibition entry in the assay on Bone marrow cell [2] was “Dose-dependent effect”. The inhibition at 72 µM with Bone marrow cell [3] was found to be 28.2%.
With `CCCCCCCCCOCCCCCC(=O)O`, in the assay with Bone marrow cell [2], the inhibition result is “inactive”. For the same compound, the inhibition at 37 µM in the assay with Bone marrow cell [1] was 100%.
As for `CCCCCCCCCCn1cc(CCC(=O)O)nn1`, in the assay with Bone marrow cell [2], the inhibition result is “Active”. Besides, at 37 µM the inhibition with Bone marrow cell [1] was 26.7%.
Take `CCCCCCCn1cc(CCCCCC(=O)O)nn1`: the inhibition result with Bone marrow cell [2] is “Dose-dependent effect”. In addition, in the assay on Bone marrow cell [1], testing at 37 µM gave an inhibition of 21.5%. In the assay on Bone marrow cell [4], the inhibition result is “Active”.
The matching figures for `CCCCCCCCCCCCCCCC(=O)O` [PALMITIC ACID]: “Active”, 73.8% and “Active”.
`CCCOCCCCCCCCCCCC(=O)O`: in the assay with Bone marrow cell [2], the inhibition result was “Dose-dependent effect”. In the assay on Bone marrow cell [1], this compound displayed an inhibition at 37 µM of 73.2%.
With `CCCCCCOCCCCCCCCC(=O)O`, the inhibition result in the assay with Bone marrow cell [2] is “inactive”. The same compound came in with an inhibition at 37 µM with Bone marrow cell [1] of 100%.
Regarding `CCCCCCCCCCCCOCCC(=O)O`, the inhibition entry with Bone marrow cell [2] is “Dose-dependent effect”. In the assay with Bone marrow cell [1], this compound had an inhibition at 37 µM of 80.8%.
In turn, `CCCCCCCCCCCCCOCC(=O)O` came in with an inhibition at 37 µM in the assay on Bone marrow cell [1] of 100%.
In the assay on Bone marrow cell [5], `CCCCCCCCCCC#CCCCCCC(=O)O` [OSTEOPROTEGERIN] yielded an inhibition at 0.01 µg/mL of 32.6%.
`CCCCCCCCCCCn1cc(CC(=O)O)nn1` displayed an inhibition at 37 µM in the assay with Bone marrow cell [1] of 38.8%.
Take `CCCCCOCCCCCCCCCC(=O)O`: in the assay on Bone marrow cell [2], the inhibition result is “inactive”. 37 µM produced 100% inhibition with Bone marrow cell [1].
For `CCn1cc(CCCCCCCCCCC(=O)O)nn1`, the inhibition entry in the assay on Bone marrow cell [2] is “Dose-dependent effect”. This compound returned an inhibition at 37 µM in the assay with Bone marrow cell [1] of 16.9%. In addition, the inhibition result in the assay on Bone marrow cell [4] was “Active”.
On to `CCCCCCCCCCOCCCCC(=O)O`, for which the inhibition result in the assay with Bone marrow cell [2] is “Dose-dependent effect”. Also, the inhibition at 37 µM with Bone marrow cell [1] came to 65.4%.
Compound `COCCOCCOCCCCCCCC(=O)O` gave an inhibition at 37 µM in the assay on Bone marrow cell [1] of 100%.

Usually inhibition stands for the relative decrease from the control value, in per cent.
